# In patent US20110082130A1 (LIGAND PHARMACEUTICALS, INC., priority 2006, published 2011):
# Target: T1, chimeric human H3 receptor (Homo sapiens, UniProt Q9Y5N1)
# T1 construct: made in house; host or cells: Sf9 insect cells (baculovirus); P2 membrane preparation
# Assay: Chimeric human H3 receptor screening GTP binding assay (inhibition of histamine-stimulated GTP-gamma35S binding, Example 8)
# Type: biochemical
# Conditions: 4 μM of the compound, 1 μM histamine, "†" in Ki of Table II, read-out: percent inhibition of the signal obtained with 1 μM histamine
# Outline: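 Sf9 membranes co-expressing chimeric human H3 receptor and heterotrimeric G-protein, 35 μg per reaction, incubated 60 min at room temperature with 4 μM compound, 1 μM histamine, 10 μM GDP and […] GTP-gamma35S at pH 7.4. Filter-bound radioactivity counted. Result expressed as percent inhibition of the histamine signal after subtracting non-specific binding (10 μM GTP-gammaS).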
# T1 sequence (Q9Y5N1 with tags, fused parts or gaps): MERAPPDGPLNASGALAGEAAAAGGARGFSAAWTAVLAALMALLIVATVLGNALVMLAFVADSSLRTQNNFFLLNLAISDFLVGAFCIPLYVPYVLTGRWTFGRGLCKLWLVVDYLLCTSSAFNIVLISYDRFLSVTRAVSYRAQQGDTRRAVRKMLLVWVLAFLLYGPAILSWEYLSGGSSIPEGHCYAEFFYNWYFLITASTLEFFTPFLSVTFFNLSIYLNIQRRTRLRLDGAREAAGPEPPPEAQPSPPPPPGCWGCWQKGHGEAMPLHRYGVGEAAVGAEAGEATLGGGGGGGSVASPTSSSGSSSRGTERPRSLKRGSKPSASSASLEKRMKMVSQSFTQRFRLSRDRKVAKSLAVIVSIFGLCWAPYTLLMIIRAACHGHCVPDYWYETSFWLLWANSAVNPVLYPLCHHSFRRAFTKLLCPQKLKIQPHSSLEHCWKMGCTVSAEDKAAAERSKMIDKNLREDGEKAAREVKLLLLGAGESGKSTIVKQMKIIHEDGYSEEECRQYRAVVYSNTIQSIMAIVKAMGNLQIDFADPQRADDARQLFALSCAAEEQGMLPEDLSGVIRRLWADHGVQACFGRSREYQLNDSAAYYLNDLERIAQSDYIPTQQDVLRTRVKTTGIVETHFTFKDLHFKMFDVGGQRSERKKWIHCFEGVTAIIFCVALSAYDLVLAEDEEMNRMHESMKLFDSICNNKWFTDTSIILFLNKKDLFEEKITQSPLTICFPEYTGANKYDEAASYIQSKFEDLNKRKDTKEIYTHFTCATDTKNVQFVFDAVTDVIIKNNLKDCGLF
row,SMILES,inhibition at 4 µM [%]
1,"CCc1cccc(-c2ccc3c(c2)CCN(CC(=O)N2CCN(C(C)C)CC2)C3)c1 [Compound 470, 6-(3-ethylphenyl)-2-[2-(4-isopropylpiperazin-1-yl)-2-oxoethyl]-1,2,3,4-tetrahydroisoquinoline]",≥ 90
2,"CC(C)c1cccc(-c2ccc3c(c2)CCN(CC(=O)N2CCN(C4CCCC4)CC2)C3)c1 [Compound 440, 2-[2-(4-cyclopentylpiperazin-1-yl)-2-oxoethyl]-6-(3-isopropylphenyl)-1,2,3,4-tetrahydroisoquinoline]",≥ 90
3,"CCCCc1ccc(-c2ccc3c(c2)CCN(CC(=O)N2CCN(C4CCC4)CC2)C3)cc1 [Compound 451, 6-(4-butylphenyl)-2-[2-(4-cyclobutylpiperazin-1-yl)-2-oxoethyl]-1,2,3,4-tetrahydroisoquinoline]",≥ 90
4,"CC(C)c1ccc(-c2ccc3c(c2)CCN(CC(=O)N2CCN(C4CCCCC4)CC2)C3)cc1 [Compound 445, 2-[2-(4-cyclohexylpiperazin-1-yl)-2-oxoethyl]-6-(4-isopropylphenyl)-1,2,3,4-tetrahydroisoquinoline]",≥ 90
5,"O=C(CN1CCc2cc(-c3ccccc3F)ccc2C1)N1CCN(C2CCC2)CC1 [Compound 414, 2-[2-(4-cyclobutylpiperazin-1-yl)-2-oxoethyl]-6-(2-fluorophenyl)-1,2,3,4-tetrahydroisoquinoline]",≥ 90
6,"CC(C)c1cccc(-c2ccc3c(c2)CCN(CC(=O)N2CCN(C4CCC4)CC2)C3)c1 [Compound 439, 2-[2-(4-cyclobutylpiperazin-1-yl)-2-oxoethyl]-6-(3-isopropylphenyl)-1,2,3,4-tetrahydroisoquinoline]",≥ 90
7,"O=C(CN1CCc2cc(-c3cccc(F)c3)ccc2C1)N1CCN(C2CCC2)CC1 [Compound 410, 2-[2-(4-cyclobutylpiperazin-1-yl)-2-oxoethyl]-6-(3-fluorophenyl)-1,2,3,4-tetrahydroisoquinoline]",≥ 90
8,"Cc1cc(-c2ccc3c(c2)CCN(CC(=O)N2CCN(C4CCCC4)CC2)C3)ccc1F [Compound 430, 2-[2-(4-cyclopentylpiperazin-1-yl)-2-oxoethyl]-6-(4-fluoro-3-methylphenyl)-1,2,3,4-tetrahydroisoquinoline]",≥ 90
9,"O=C(CN1CCc2cc(-c3cccc(Cl)c3)ccc2C1)N1CCN(C2CCCC2)CC1 [Compound 402, 6-(3-chlorophenyl)-2-[2-(4-cyclopentylpiperazin-1-yl)-2-oxoethyl]-1,2,3,4-tetrahydroisoquinoline]",≥ 90
10,"CC(C)N1CCN(C(=O)CN2CCc3cc(-c4ccc5ccccc5c4)ccc3C2)CC1 [Compound 419, 2-[2-(4-isopropylpiperazin-1-yl)-2-oxoethyl]-6-(2-naphthyl)-1,2,3,4-tetrahydroisoquinoline]",≥ 90
11,"O=C(CN1CCc2nc(-c3ccccc3Oc3ccccc3)sc2C1)N1CCN(C2CCC2)CC1 [Compound 345, 5-[2-(4-cyclobutylpiperazin-1-yl)-2-oxoethyl]-2-(2-phenoxyphenyl)-4,5,6,7-tetrahydro[1,3] thiazolo[5,4-c]pyridine]",≥ 90
12,"O=C(CN1CCc2cc(-c3ccc(Cl)cc3)ccc2C1)N1CCN(C2CCCCC2)CC1 [Compound 406, 6-(4-chlorophenyl)-2-[2-(4-cyclohexylpiperazin-1-yl)-2-oxoethyl]-1,2,3,4-tetrahydroisoquinoline]",≥ 90
13,"Cc1ccc(-c2ccc3c(c2)CCN(CC(=O)N2CCN(C4CCCC4)CC2)C3)c(F)c1 [Compound 421, 2-[2-(4-cyclopentylpiperazin-1-yl)-2-oxoethyl]-6-(2-fluoro-4-methylphenyl)-1,2,3,4-tetrahydroisoquinoline]",≥ 90
14,"Cc1ccc(-c2ccc3c(c2)CCN(CC(=O)N2CCN(C4CCCC4)CC2)C3)cc1F [Compound 427, 2-[2-(4-cyclopentylpiperazin-1-yl)-2-oxoethyl]-6-(3-fluoro-4-methylphenyl)-1,2,3,4-tetrahydroisoquinoline]",≥ 90
15,"Cc1ccc(-c2ccc3c(c2)CCN(CC(=O)N2CCN(C4CCCCC4)CC2)C3)cc1C [Compound 449, 2-[2-(4-cyclohexylpiperazin-1-yl)-2-oxoethyl]-6-(3,4-dimethylphenyl)-1,2,3,4-tetrahydroisoquinoline]",≥ 90
16,"O=C(CN1CCc2cc(-c3ccc(F)cc3)ccc2C1)N1CCN(C2CCC2)CC1 [Compound 407, 2-[2-(4-cyclobutylpiperazin-1-yl)-2-oxoethyl]-6-(4-fluorophenyl)-1,2,3,4-tetrahydroisoquinoline]",≥ 90

# Same assay, conditions: Table II "Ki", symbol †, 4 μM of the compound, 1 μM histamine, read-out: percent inhibition of the signal obtained with 1 μM histamine
row,SMILES,inhibition at 4 µM [%]
1,"COc1ccc(OC)c(-c2ccc3c(c2)CCN(CC(=O)N2CCN(C4CCCCC4)CC2)C3)c1 [Compound 561, 2-[2-(4-cyclohexylpiperazin-1-yl)-2-oxoethyl]-6-(2,5-dimethoxyphenyl)-1,2,3,4-tetrahydroisquinoline]",≥ 90
2,"CN(CC#N)c1ccc2c(n1)CCN(CC(=O)N1CCN(C3CCC3)CC1)C2 [Compound 680, [{6-[2-(4-cyclobutylpiperazin-1-yl)-2-oxoethyl]-5,6,7,8-tetrahydro-1,6-naphthyridin-2-yl}(methyl)amino] acetonitrile]",≥ 90
3,"COc1ccc(C(C)C)cc1-c1ccc2c(c1)CCN(CC(=O)N1CCN(C3CCC3)CC1)C2 [Compound 554, 2-[2-(4-cyclobutylpiperazin-1-yl)-2-oxoethyl]-6-(5-isopropyl-2-methoxyphenyl)-1,2,3,4-tetrahydroisoquinoline]",≥ 90
4,"COCC(C)Nc1ccc2c(n1)CCN(CC(=O)N1CCN(C3CCC3)CC1)C2 (stereo not drawn) [Compound 665, 6-[2-(4-cyclobutylpiperazin-1-yl)-2-oxoethyl]-N-(2-methoxy-1-methylethyl)-5,6,7,8-tetrahydro-1,6-naphthyridin-2-amine]",≥ 90
5,"CN(C)c1ccc(-c2ccc3c(c2)CCN(CC(=O)N2CCN(C4CCCCC4)CC2)C3)cc1 [Compound 534, 4-{2-[2-(4-cyclohexylpiperazin-1-yl)-2-oxoethyl]-1,2,3,4-tetrahydroisoquinolin-6-yl}-N,N-dimethylaniline]",≥ 90
6,"O=C(CN1CCc2cc(-c3ccc(Oc4ccccc4)cc3)ccc2C1)N1CCN(C2CCCC2)CC1 [Compound 487, 2-[2-(4-cyclopentylpiperazin-1-yl)-2-oxoethyl]-6-(4-phenoxyphenyl)-1,2,3,4-tetrahydroisoquinoline]",≥ 90
7,"O=C(CN1CCc2cc(-c3cc(F)ccc3F)ccc2C1)N1CCN(C2CCCCC2)CC1 [Compound 584, 2-[2-(4-cyclohexylpiperazin-1-yl)-2-oxoethyl]-6-(2,5-difluorophenyl)-1,2,3,4-tetrahydroisoquinoline]",≥ 90
8,"COc1ccc(C(C)C)cc1-c1ccc2c(c1)CCN(CC(=O)N1CCN(C3CCCCC3)CC1)C2 [Compound 556, 2-[2-(4-cyclohexylpiperazin-1-yl)-2-oxoethyl]-6-(5-isopropyl-2-methoxyphenyl)-1,2,3,4-tetrahydroisoquinoline]",≥ 90
9,"O=C(CN1CCc2cc(-c3cncnc3)ccc2C1)N1C[C@@H]2C[C@H]1CN2C1CCCCC1 (stereo in doubt) [Compound 618, 2-{2-[(1S,4S)-5-cyclohexyl-2,5-diazabicyclo[2.2.1]hept-2-yl]-2-oxoethyl}-6-pyrimidin-5-yl-1,2,3,4-tetrahydroisoquinoline]",≥ 90
10,"O=C(CN1CCc2cc(-c3ccccc3Oc3ccccc3)ccc2C1)N1CCN(C2CCC2)CC1 [Compound 575, 2-[2-(4-cyclobutylpiperazin-1-yl)-2-oxoethyl]-6-(2-phenoxyphenyl)-1,2,3,4-tetrahydroisoquinoline]",≥ 90
11,"O=C(CN1CCc2cc(-c3ccc(F)cc3F)ccc2C1)N1CCN(C2CCC2)CC1 [Compound 586, 2-[2-(4-cyclobutylpiperazin-1-yl)-2-oxoethyl]-6-(2,4-difluorophenyl)-1,2,3,4-tetrahydroisoquinoline]",≥ 90
12,"COc1ccc(-c2ccc3c(c2)CCN(CC(=O)N2CCN(C4CCCC4)CC2)C3)c(C)c1 [Compound 549, 2-[2-(4-cyclopentylpiperazin-1-yl)-2-oxoethyl]-6-(4-methoxy-2-methylphenyl)-1,2,3,4-tetrahydroisoquinoline]",≥ 90
13,"CN(C)c1cccc(-c2ccc3c(c2)CCN(CC(=O)N2CCN(C4CCCC4)CC2)C3)c1 [Compound 537, 3-{2-[2-(4-cyclopentylpiperazin-1-yl)-2-oxoethyl]-1,2,3,4-tetrahydroisoquinolin-6-yl}-N,N-dimethylaniline]",≥ 90
14,"CCC(C)N1CCN(C(=O)CN2CCc3cc(-c4cncnc4)ccc3C2)C[C@H]1C (stereo partly drawn) [Compound 606, 2-{2-[(3R)-4-sec-butyl-3-methylpiperazin-1-yl]-2-oxoethyl}-6-pyrimidin-5-yl-1,2,3,4-tetrahydroisoquinoline]",≥ 90
15,"COc1cc(F)c(-c2ccc3c(c2)CCN(CC(=O)N2CCN(C(C)C)CC2)C3)cc1F [Compound 508, 6-(2,5-difluoro-4-methoxyphenyl)-2-[2-(4-isopropylpiperazin-1-yl)-2-oxoethyl]-1,2,3,4-tetrahydroisoquinoline]",≥ 90
16,"CCOc1ccccc1-c1ccc2c(c1)CCN(CC(=O)N1CCN(C(C)C)CC1)C2 [Compound 569, 6-(2-ethoxyphenyl)-2-[2-(4-isopropylpiperazin-1-yl)-2-oxoethyl]-1,2,3,4-tetrahydroisoquinoline]",≥ 90
17,"CCCCN1CCN(C(=O)CN2CCc3cc(-c4cncnc4)ccc3C2)CC1 [Compound 604, 2-[2-(4-butylpiperazin-1-yl)-2-oxoethyl]-6-pyrimidin-5-yl-1,2,3,4-tetrahydroisoquinoline]",≥ 90
